Legend:
SMN protein [1] = experiment: Study BP39055 Part 1: SMN protein in Type 2 and 3 SMA patients; format: in vivo, human
From the text: Study BP39055 is a two-part operationally seamless, multi-center, randomized, placebo-controlled, double-blind study to investigate the safety, tolerability, pharmacokinetics (PK), pharmacodynamics (PD) and efficacy of RO7034067 in Type 2 and 3 spinal muscular atrophy (SMA) patients. The study consists of an exploratory dose-finding part (Part 1) and a confirmatory part (Part 2).
The primary objective of Part 1 is to evaluate the safety, tolerability, PK and PD of RO7034067 in patients with Type 2 and Type 3 (ambulant or non-ambulant) SMA, and to select the dose for Part 2 of the study.
Part 1 was a double-blinded, placebo-controlled, randomized (2:1 RO7034067:placebo), exploratory dose-finding study in Type 2 and Type 3 (ambulant and non-ambulant) SMA patients. This will be followed by an open-label extension (OLE) at the same dose as selected for Part 2 of the study.
Part 1 of the study enrolled patients in two age groups: • Group A: adolescent and adult patients aged 12 25 years • Group B: children aged 2 11 years RO7034067 dose levels were investigated in a staggered, dose escalation manner in both age groups.
The dose recommended by the IMC for this age group according to the target AUC0-24 h,ss of 700 ng[…]h/mL was 0.02 mg/kg (see IMC recommendation of 12 Dec. 2016 in Appendix 1); 10 patients aged 3-11 years were enrolled in Cohort B1. • At the same time point (i.e., once safety and tolerability were confirmed based on the review of at least 4 weeks of treatment at 3 mg once daily in 9 patients in Cohort A1), enrolment was opened to another cohort of 9 adult and adolescent patients (Cohort A2) receiving RO7034067 5 mg once daily (see IMC recommendation of 19 Jan. 2017 in Appendix 1). As per protocol, the higher dose level was determined such as to achieve maximum SMN protein increase, without exceeding the exposure cap (Cmax 400 ng/mL; mean AUC0 24 h,ss 2000 ng[…]h/mL); 10 patients aged 13[…]24 years were enrolled in Cohort A2. • Based on the review of a minimum of 4 weeks of treatment at 0.02 mg/kg in 9 patients enrolled in Cohort B1, the following recommendations were made by the IMC: i) to increase the dose in these patients to 0.05 mg/kg without exceeding a cap dose of 3 mg, and ii) to enroll a minimum of 9 additional patients aged 2[…]11 years at a dose of 0.05 mg/kg without exceeding a cap dose of 3 mg (Cohort B2), targeting at least 5 patients aged 2[…]6 years (see IMC recommendation of 13 Mar. […] At the same time point, enrollment was opened to another cohort of 9 patients at the dose of 0.25 mg/kg without exceeding a cap dose of 5 mg (Cohort B3), determined such as to achieve maximum Survival of Motor Neuron (SMN) protein increase, without exceeding the exposure cap (Cmax 400 ng/mL; mean AUC0-24 h,ss 2000 ng[…]h/mL); 10 patients aged 2[…]11 years were enrolled in Cohort B3. • Upon completion of at least 12 weeks of placebo-controlled treatment by a minimum of 9 patients of each cohort, the IMC reviewed all available data from the cohort to make the decision to switch placebo patients to active treatment at the dose tested in their respective cohort. Dates of the IMC decisions to switch placebo patients to active treatment in the respective cohorts are provided in Section 1.3. • For the last cohort in Part 1 (Cohort B3), all available safety, tolerability, PK and PD data following completion of a minimum of 4 weeks treatment by the 9th patient (including all available data for the 10th patient of the last cohort who was enrolled approximately 1 week after the 9th patient, and all available data from all previous cohorts) were reviewed by the IMC in order to select the dose to be administered in Part 2 of the study. This dose selection was confirmed by the external iDMC following review of the same data package. […]

SMN protein [2] = experiment: SMN protein (HTRF) in brain and quadriceps muscle of SMNΔ7 mice; format: in vivo
Procedure: FIG. 1A-FIG. 1D: Increase in SMN Protein Expression In Vivo • HET=heterogygous. • C/C-allele mice and SMNΔ7 mice were treated with RO7034067. One hour after the last dose, brains and quadriceps muscles were collected and levels of SMN protein were assessed by HTRF. FIG. 1A. SMN protein in brains of C/C-allele mice. FIG. 1B. SMN protein in brains of SMNΔ7 mice. FIG. 1C. SMN protein in quadriceps muscle of C/C-allele mice. FIG. 1D. SMN protein in quadriceps muscle of SMNΔ7 mice. Data represent means±SEM of 5-6 animals per group and are expressed as fold change vs. vehicle-treated controls. *=p<0.05, **=p<0.01, ***=p<0.001 vs. untreated controls.
Adult C/C-allele mice were treated for 10 days with vehicle or RO7034067 (1, 3 or 10 mg/kg per os [PO], daily), and PND3 SMNΔ7 mice were treated for 7 days with vehicle or RO7034067 (0.1, 0.3, 1 or 3 mg/kg intraperitoneal [IP], daily). […] In SMNΔ7 mice, the SMN protein increase was only partial in both brain and muscle, reaching approximately 43% (brain) and 55% (muscle) of protein levels in heterozygous mice.

FMO3 = target: T1, FMO3 (Homo sapiens, UniProt P31513); experiment: Elimination pathway; format: in vitro ADME
T1 sequence (P31513 1-532): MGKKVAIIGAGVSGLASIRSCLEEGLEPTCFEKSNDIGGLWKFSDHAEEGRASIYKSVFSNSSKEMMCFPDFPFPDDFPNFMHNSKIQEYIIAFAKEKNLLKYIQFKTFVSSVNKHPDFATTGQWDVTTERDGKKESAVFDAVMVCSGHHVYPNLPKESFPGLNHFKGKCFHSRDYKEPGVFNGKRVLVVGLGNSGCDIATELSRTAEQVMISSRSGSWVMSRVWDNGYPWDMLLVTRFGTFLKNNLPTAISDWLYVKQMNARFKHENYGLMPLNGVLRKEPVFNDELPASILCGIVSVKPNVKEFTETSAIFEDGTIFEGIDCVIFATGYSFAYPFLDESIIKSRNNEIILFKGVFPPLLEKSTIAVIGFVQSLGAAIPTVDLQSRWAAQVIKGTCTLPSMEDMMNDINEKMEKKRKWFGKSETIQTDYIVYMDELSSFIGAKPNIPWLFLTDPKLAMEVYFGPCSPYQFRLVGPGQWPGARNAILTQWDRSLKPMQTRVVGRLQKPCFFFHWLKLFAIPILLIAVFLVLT

SMILES: Cc1cn2nc(-c3cc(=O)n4cc(N5CCNC6(CC6)C5)ccc4n3)cc(C)c2n1 [RO7034067, 7-(4,7-diazaspiro[2.5]octan-7-yl)-2-(2,8-dimethylimidazo[1,2-b]pyridazin-6-yl)pyrido[1,2-a]pyrimidin-4-one]
- Fold-Increase from the Baseline in SMN Protein on Day 28, median (SMN protein [1]; 0.02 mg): 1.09 fold
- Fold-Increase from the Baseline in SMN Protein on Day 28, median (SMN protein [1]; 0.05 mg): 1.51 fold
- Fold-Increase from the Baseline in SMN Protein on Day 28, median (SMN protein [1]; 0.15 mg/kg): 1.67 fold
- Fold-Increase from the Baseline in SMN Protein on Day 28, median (SMN protein [1]; 0.25 mg/kg): 1.96 fold
- SMN protein increase versus baseline (median) (SMN protein [1]; 0.25 mg/kg, 2-11 year age group): 96%
- Fold-Increase from the Baseline in SMN Protein on Day 28, median (SMN protein [1]; 3 mg): 2.25 fold
- Fold-Increase from the Baseline in SMN Protein on Day 28, median (SMN protein [1]; 5 mg): 2.51 fold
- median SMN protein increase versus baseline (SMN protein [1]; 5 mg, SMA patients 12-25 years old): 151%
- SMN protein in brain as share of protein levels in heterozygous mice (SMN protein [2]; SMNΔ7 mice, brain): approximately 43%
- SMN protein in muscle as share of protein levels in heterozygous mice (SMN protein [2]; SMNΔ7 mice, muscle): ~55%
- SMN protein levels in brain and muscle tissue, maximum effect (SMN protein [2]; neonatal SMNΔ7 mice, 1-3 mg/kg IP daily, 7 days): 2-3 fold
- increase in SMN protein possible (SMN protein [2]; severe SMNΔ7 mouse model): more than 100%
- elimination pathway (FMO3): FMO3 participates on the elimination path way
